Laboratory results as given in patent US8236935B2, “Gem-difluorinated C-glycoside compounds derived from podophyllotoxin, their preparation and their applications” (Institut National des Sciences Appliquees de Rouen (INSA), priority 2006, dated 2012).
“And” between values parts separate entries of the source, which are not always exact repeats. Identical values can stand only once.

Assays:
Format in all cases: cell-based
SF268 cells = assay: cytotoxicity test, inhibition of cellular growth, SF268 cells; details: triplicate; for inhibition percentage of cellular growth: 10^−5M
Protocol: (§1) The first cytotoxicity tests were conducted on different cell lines such as KB, PC3, MCF7 and MCF7R, SF268, HL60, HT29, A549 cells at concentrations of 10^−5M in triplicate. Podophyllotoxin 1 and etoposide 2 were also tested under the same conditions as standards.
(§2) The results are expressed as an inhibition percentage of cellular growth.

HT29 cells = assay: cytotoxicity test, inhibition of cellular growth, HT29 cells; details: triplicate; for inhibition percentage of cellular growth: 10^−5M
Protocol: as §1, §2

MCF7R cells = assay: cytotoxicity test, inhibition of cellular growth, MCF7R cells; details: 10^−5M, triplicate
Protocol: as §1, §2

MCF7 cells = assay: cytotoxicity test, inhibition of cellular growth, MCF7 cells; details: 10^−5M, triplicate
Protocol: as §1, §2

KB cells [1] = assay: cytotoxicity test, inhibition of cellular growth, KB cells; details: 10^−5M; for inhibition percentage of cellular growth / inhibition at 10 µM: triplicate; for inhibition at 10 µM: Homo sapiens, read-out: inhibition percentage of cellular growth
Protocol: as §1, §2

A549 cells = assay: cytotoxicity test, inhibition of cellular growth, A549 cells; details: 10^−5M, triplicate
Protocol: as §1, §2

PC3 cells = assay: cytotoxicity test, inhibition of cellular growth, PC3 cells; details: triplicate; for inhibition percentage of cellular growth: 10^−5M
Protocol: as §1, §2

HL60 cells = assay: cytotoxicity test, inhibition of cellular growth, HL60 cells; details: triplicate; for inhibition percentage of cellular growth: 10^−5M
Protocol: as §1, §2

[2] = tested on: KB, PC3, MCF7 and MCF7R, SF268, HL60, HT29, A549 cells; assay: cytotoxicity tests on the panel of cell lines, overall comparison with standards; details: 10^−5M
Protocol: as §1, §2

KB cells [3] = assay: IC50 of cytotoxicity on KB cells; details: in duplicate (two values per cell, separated by /)
Text: The IC50 values are expressed in μM on KB cells in duplicate and were obtained for the […] leading compounds, i.e. 27a, 32a, 44a, 37a and 46a in parallel with podophyllotoxin and etoposide.

[4] = Homo sapiens, read-out: inhibition percentage of cellular growth

SMILES: COc1cc(C2c3cc4c(cc3C(NC(=O)C(F)(F)C3(O)OC(CO)C(O)C(O)C3O)C3COC(=O)C23)OCO4)cc(OC)c1OC (stereo not shown) [compound 27b]
- inhibition percentage of cellular growth (SF268 cells): 7%
- inhibition percentage of cellular growth (HT29 cells): 8%
- inhibition percentage of cellular growth (MCF7R cells): 10%
- inhibition percentage of cellular growth (MCF7 cells): 20%
- inhibition percentage of cellular growth (KB cells [1]): 12%
- inhibition percentage of cellular growth (A549 cells): 6%
- inhibition percentage of cellular growth (PC3 cells): 8%
- inhibition percentage of cellular growth (HL60 cells): 19%

SMILES: COc1cc(C2c3cc4c(cc3C(NC(=O)C(F)(F)C3(O)OC5COC(C)OC5C(O)C3O)C3COC(=O)C23)OCO4)cc(OC)c1OC (stereo not shown) [29a]
- inhibition percentage of cellular growth (SF268 cells): 11%
- inhibition percentage of cellular growth (HT29 cells): 17%
- inhibition percentage of cellular growth (MCF7R cells): 44%
- inhibition percentage of cellular growth (MCF7 cells): 40%
- inhibition percentage of cellular growth (KB cells [1]): 66%
- inhibition percentage of cellular growth (A549 cells): 6%
- inhibition percentage of cellular growth (PC3 cells): 8%
- inhibition percentage of cellular growth (HL60 cells): 17%

SMILES: COc1cc(C2c3cc4c(cc3C(NCC(F)(F)C3(O)OC(CO)C(O)C(O)C3O)C3COC(=O)C23)OCO4)cc(OC)c1OC (stereo not shown) [compound 32a]
- cytotoxicity compared with etoposide and podophyllotoxin (in words) (KB cells [1]): cytotoxicity close to that of etoposide and podophyllotoxin
- inhibition percentage of cellular growth (KB cells [1]): 94%

SMILES: COc1cc(C2c3cc4c(cc3C(NC(=O)C(F)(F)C3(O)OC(CO)C(O)C(O)C3O)C3COC(=O)C23)OCO4)cc(OC)c1OC (stereo not shown) [compound 27a]
- activity compared with etoposide and podophyllotoxin (in words) [2]: activity comparable with that of etoposide and of podophyllotoxin, and even better on certain cell lines
- IC50 (KB cells [3]): 3450 nM and 2550 nM
- inhibition percentage of cellular growth (SF268 cells): 65%
- inhibition percentage of cellular growth (HT29 cells): 87%
- inhibition percentage of cellular growth (MCF7R cells): 70%
- inhibition percentage of cellular growth (MCF7 cells): 53%
- inhibition percentage of cellular growth (KB cells [1]): 91%
- inhibition percentage of cellular growth (A549 cells): 78%
- inhibition percentage of cellular growth (PC3 cells): 63%
- inhibition percentage of cellular growth (HL60 cells): 79%

SMILES: COc1cc(C2c3cc4c(cc3C(NCC(F)(F)C3(O)OC5COC(C)OC5C(O)C3O)C3COC(=O)C23)OCO4)cc(OC)c1OC (stereo not shown) [compound 46a]
- IC50 (KB cells [3]): 4710 nM and 6030 nM
- cytotoxicity compared with etoposide and podophyllotoxin (in words) (KB cells [1]): cytotoxicity close to that of etoposide and podophyllotoxin
- inhibition percentage of cellular growth (KB cells [1]): 86%

SMILES: COc1cc([C@@H]2c3cc4c(cc3[C@@H](NC(=O)C(F)(F)[C@]3(O)O[C@H](CO)[C@H](O)[C@H](O)[C@H]3O)[C@H]3COC(=O)[C@H]23)OCO4)cc(OC)c1O [compound 26b]
- inhibition percentage of cellular growth (SF268 cells): 7%
- inhibition percentage of cellular growth (HT29 cells): 13%
- inhibition percentage of cellular growth (MCF7R cells): 16%
- inhibition percentage of cellular growth (MCF7 cells): 20%
- inhibition percentage of cellular growth (KB cells [1]): 12%
- inhibition percentage of cellular growth (A549 cells): 7%
- inhibition percentage of cellular growth (PC3 cells): 8%
- inhibition percentage of cellular growth (HL60 cells): 19%

SMILES: COc1cc([C@@H]2c3cc4c(cc3[C@@H](NC(=O)C(F)(F)C3(Cl)O[C@H](CO)[C@@H](O)[C@H](O)[C@H]3O)C3COC(=O)[C@@H]32)OCO4)cc(OC)c1OC (stereo partly shown) [compound 37a]
- IC50 (KB cells [3]; Homo sapiens, KB): 273 nM
- IC50 (KB cells [3]): 306 nM
- cytotoxicity compared with etoposide and podophyllotoxin (in words) (KB cells [1]): cytotoxicity close to that of etoposide and podophyllotoxin
- inhibition at 10 µM (KB cells [1]): 91%

SMILES: COc1cc([C@@H]2c3cc4c(cc3[C@@H](N(C)C(=O)C(F)(F)[C@]3(O)O[C@H](COCc5ccccc5)[C@@H](OCc5ccccc5)[C@H](OCc5ccccc5)[C@H]3OCc3ccccc3)C3COC(=O)[C@@H]32)OCO4)cc(OC)c1OC (stereo partly shown) [compound 31a]
- inhibition at 10 µM (KB cells [1]): 22%

SMILES: COc1cc([C@@H]2c3cc4c(cc3[C@@H](NC(=O)C(F)(F)[C@]3(O)O[C@H](CO)[C@@H](O)[C@H](O)[C@H]3O)[C@H]3COC(=O)[C@H]23)OCO4)cc(OC)c1O [compound 26a]
- inhibition percentage of cellular growth (SF268 cells): 7%
- inhibition percentage of cellular growth (HT29 cells): 10%
- inhibition percentage of cellular growth (MCF7R cells): 35%
- inhibition percentage of cellular growth (MCF7 cells): 37%
- inhibition percentage of cellular growth (KB cells [1]): 43%
- inhibition percentage of cellular growth (A549 cells): 23%
- inhibition percentage of cellular growth (PC3 cells): 10%
- inhibition percentage of cellular growth (HL60 cells): 17%

SMILES: COc1cc([C@@H]2c3cc4c(cc3[C@H](O)[C@H]3COC(=O)[C@H]23)OCO4)cc(OC)c1OC [Podophyllotoxin 1, Podophyllotoxin]
- IC50 (KB cells [3]; Homo sapiens, KB): 15 nM
- IC50 (KB cells [3]): 22 nM
- inhibition at 10 µM (SF268 cells; Homo sapiens, SF-268, 10^−5M, read-out: inhibition percentage of cellular growth): 74%
- inhibition at 10 µM (HT29 cells; Homo sapiens, HT-29, 10^−5M, read-out: inhibition percentage of cellular growth): 84%
- inhibition at 10 µM (MCF7R cells; [4]): 55%
- inhibition at 10 µM (MCF7 cells; [4]): 55%
- inhibition at 10 µM (KB cells [1]): 90%
- inhibition at 10 µM (A549 cells; [4]): 83%
- inhibition at 10 µM (PC3 cells; Homo sapiens, PC-3, 10^−5M, read-out: inhibition percentage of cellular growth): 65%
- inhibition at 10 µM (HL60 cells; Homo sapiens, HL-60, 10^−5M, read-out: inhibition percentage of cellular growth): 74%

SMILES: COc1cc([C@@H]2c3cc4c(cc3[C@@H](NC(=O)C(F)(F)[C@@H]3O[C@H](CO)[C@@H](O)[C@H](O)[C@H]3O)C3COC(=O)[C@@H]32)OCO4)cc(OC)c1OC (stereo partly shown) [compound 44a]
- IC50 (KB cells [3]; Homo sapiens, KB): 323 nM
- IC50 (KB cells [3]): 341 nM
- cytotoxicity compared with etoposide and podophyllotoxin (in words) (KB cells [1]): cytotoxicity close to that of etoposide and podophyllotoxin
- inhibition at 10 µM (KB cells [1]): 90%

SMILES: COc1cc(C2c3cc4c(cc3C(NC(=O)C(F)(F)C3(O)OC5COC(C)OC5C(O)C3O)C3COC(=O)C23)OCO4)cc(OC)c1OC (stereo not shown) [29b]
- inhibition percentage of cellular growth (SF268 cells): 6%
- inhibition percentage of cellular growth (HT29 cells): 6%
- inhibition percentage of cellular growth (MCF7R cells): 7%
- inhibition percentage of cellular growth (MCF7 cells): 7%
- inhibition percentage of cellular growth (KB cells [1]): 0%
- inhibition percentage of cellular growth (A549 cells): 1%
- inhibition percentage of cellular growth (PC3 cells): 3%
- inhibition percentage of cellular growth (HL60 cells): 0%

SMILES: COc1cc([C@@H]2c3cc4c(cc3[C@@H](O[C@@H]3O[C@@H]5CO[C@@H](C)O[C@H]5[C@H](O)[C@H]3O)[C@H]3COC(=O)[C@H]23)OCO4)cc(OC)c1O [Etoposide, etoposide, reference compound]
- inhibition percentage of cellular growth (SF268 cells): 82%
- inhibition percentage of cellular growth (HT29 cells): 79%
- inhibition percentage of cellular growth (MCF7R cells): 22%
- inhibition percentage of cellular growth (MCF7 cells): 57%
- inhibition percentage of cellular growth (KB cells [1]): 84%
- inhibition percentage of cellular growth (A549 cells): 65%
- inhibition percentage of cellular growth (PC3 cells): 47%
- inhibition percentage of cellular growth (HL60 cells): 75%
